The text below walks through data of patent US20130029970A1 (priority 2009, published 2013).

One test deals with T1, human CB2 (hCB2) (Homo sapiens, UniProt P34972).
T1 construct: (cDNA clone) CNR0200000
Kind of test: 35S GTPγS binding assay, hCB2 agonist. The format is biochemical. An outline of the steps:
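Membranes (5 μg) from cells transfected with hCB2 cDNA in pcDNA3.1+ incubated with SPA beads, 0.1 nM [35S]GTPγS and 20 uM GDP in 50 mM HEPES pH 7.4, 100 mM NaCl, 5 mM MgCl2, 0.001% saponin, ± test compound. Incubation 90 min at room temperature; bound label read by scintillation counting.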

Another test has as its target T2, human CB1 receptors (Homo sapiens, UniProt P21554).
T2 construct: (cDNA clone) CNR01L000
In words: cAMP assay in HEK-293 cells, hCB1 agonist. The format is cell-based. To be noted: inhibition of forskolin-stimulated cAMP, HEK-293 cells; for EC50: read-out: hCB1 EC50 (cAMP ag). The procedure, abridged:
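Stable hCB1 HEK-293 cells suspended in HBSS with 10 mM HEPES and 0.1% fatty acid-free BSA, incubated 30 min at 37° C. with compound plus forskolin (90 uM in the 3× compound solution). Lysed cAMP measured by enzyme-fragment kit; EC50 = 50% inhibition of forskolin-stimulated cAMP (forskolin maximum = 100%), sigmoidal fit.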

In test [1] the target is T3, recombinant human cannabinoid receptor CB2 (Homo sapiens, UniProt P34972).
T3 construct: (cDNA clone) CNR0200000
In words: Cannabinoid receptor radioligand binding assay, [3H]-CP 55,940 displacement, hCB2. An outline of the steps:
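Membranes from hCB2-transfected cells, prepared by 1000×g then 40,000×g centrifugation, resuspended in 20 mM HEPES pH 7.4, 5 mM MgCl2, 1 mM EDTA, 10% sucrose.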

The next test deals with T4, human CB2 receptors (Homo sapiens, UniProt P34972).
T4 construct: (cDNA clone) CNR0200000
In words: cAMP assay in HEK-293 cells, hCB2 agonist. The format is cell-based. An outline of the steps:
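HEK-293 cells stably expressing human CB2, suspended at 1,500,000 cells/mL in HBSS with 10 mM HEPES and 0.1% fatty-acid-free BSA, exposed to test compound plus forskolin (90 uM in the 3× compound solution) for 30 min at 37° C.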
(In general: cAMP levels reflect the balance of adenylyl cyclase and phosphodiesterase activity.)

Where [2] appears, read: GTPγS agonist, HEK-293 membranes, read-out: hCB2 EC50 (GTPyS ag).
The mark [3] stands for this setting: inhibition of forskolin-stimulated cAMP, HEK-293 cells, read-out: hCB2 EC50 (cAMP ag).

Read-outs that look alike come from different tables or passages of the source.

As a reminder, the EC50 is the midpoint of the concentration-response curve. The IC50 is the concentration at which inhibition is half-maximal.

T1 sequence (P34972 whole entry): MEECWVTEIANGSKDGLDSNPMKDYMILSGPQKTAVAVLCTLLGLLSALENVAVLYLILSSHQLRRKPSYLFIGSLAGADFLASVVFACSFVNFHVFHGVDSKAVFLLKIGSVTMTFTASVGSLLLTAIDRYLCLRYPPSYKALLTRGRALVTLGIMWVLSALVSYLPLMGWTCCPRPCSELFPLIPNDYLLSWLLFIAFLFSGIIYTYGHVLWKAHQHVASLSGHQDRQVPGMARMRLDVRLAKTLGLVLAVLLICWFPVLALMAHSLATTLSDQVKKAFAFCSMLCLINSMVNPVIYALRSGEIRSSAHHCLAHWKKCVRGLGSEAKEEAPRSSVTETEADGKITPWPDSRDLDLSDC
T3 sequence (P34972 whole entry): as above
T4 sequence (P34972 whole entry): as above
T2 sequence (P21554 whole entry): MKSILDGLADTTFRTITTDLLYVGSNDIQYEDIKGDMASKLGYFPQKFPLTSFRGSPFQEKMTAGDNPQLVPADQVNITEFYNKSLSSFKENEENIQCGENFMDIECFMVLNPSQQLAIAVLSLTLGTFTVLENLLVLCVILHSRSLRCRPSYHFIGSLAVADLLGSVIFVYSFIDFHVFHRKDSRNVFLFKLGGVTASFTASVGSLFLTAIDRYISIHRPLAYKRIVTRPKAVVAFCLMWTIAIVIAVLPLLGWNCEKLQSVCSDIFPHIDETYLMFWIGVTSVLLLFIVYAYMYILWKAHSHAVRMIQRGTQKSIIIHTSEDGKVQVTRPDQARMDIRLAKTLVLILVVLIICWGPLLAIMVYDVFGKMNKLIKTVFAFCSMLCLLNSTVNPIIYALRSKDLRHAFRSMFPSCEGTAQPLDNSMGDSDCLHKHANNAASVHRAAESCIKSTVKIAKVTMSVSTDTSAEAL

On to `COc1ccc(C(=O)c2cc3cc(C)n(CCN4CCOCC4)c3s2)c(C)c1` [Compound 88, (4-Methoxy-2-methylphenyl)(5-methyl-6-(2-morpholinoethyl)-6H-thieno[2,3-b]pyrrol-2-yl)methanone], for which the values for the EC50 on human CB2 (hCB2), on human CB1 receptors and on human CB2 receptors were less than 0.1 µM, 0.1 to 1 µM and less than 0.1 µM, respectively. Further, the IC50 in test [1] was less than 0.1 µM.
Regarding `CCOc1ccc(C(=O)c2cc3cc(C)n(CCN4CCOCC4)c3s2)c(F)c1` [Compound 89, (4-Ethoxy-2-fluorophenyl)(5-methyl-6-(2-morpholinoethyl)-6H-thieno[2,3-b]pyrrol-2-yl)methanone], the EC50 on human CB2 (hCB2) is less than 0.1 µM; at human CB1 receptors, 1 to 10 µM; at human CB2 receptors it was less than 0.1 µM. For the same molecule, the IC50 in test [1] fell in the range of 0.1 to 1 µM.
As to `COc1ccc(C(=O)c2cc3cc(C)n(CCN4CCCCC4)c3s2)c(Cl)c1` [Compound 90, (2-Chloro-4-methoxyphenyl)(5-methyl-6-(2-(piperidin-1-yl)ethyl)-6H-thieno[2,3-b]pyrrol-2-yl)methanone], the figures for the EC50 at human CB2 (hCB2), at human CB1 receptors and on human CB2 receptors were less than 0.1 µM, 0.1 to 1 µM and less than 0.1 µM, respectively. In test [1], the IC50 is less than 0.1 µM.
As to `COc1ccc(C(=O)c2cc3cc(C)n(CCN4CCCC4)c3s2)c(F)c1` [Compound 92, (2-Fluoro-4-methoxyphenyl)(5-methyl-6-(2-(pyrrolidin-1-yl)ethyl)-6H-thieno[2,3-b]pyrrol-2-yl)methanone], the figures for the EC50 on human CB2 (hCB2), on human CB1 receptors and on human CB2 receptors were less than 0.1 µM, 1 to 10 µM and less than 0.1 µM, respectively. In test [1], the IC50 lay within 0.1 to 1 µM.
Regarding `COc1ccc(C(=O)c2cc3cc(C)n(CCN4CCCC4)c3s2)c(Cl)c1` [Compound 93, (2-Chloro-4-methoxyphenyl)(5-methyl-6-(2-(pyrrolidin-1-yl)ethyl)-6H-thieno[2,3-b]pyrrol-2-yl)methanone], the EC50 at human CB2 (hCB2) is less than 0.1 µM; at human CB1 receptors it was 1 to 10 µM; on human CB2 receptors, less than 0.1 µM. In test [1], the half-inhibitory concentration (IC50) was less than 0.1 µM.
In the case of `COc1ccc(C(=O)c2cc3cc(C)n(CCCNS(C)(=O)=O)c3s2)c(C)c1` [Compound 96, N-(3-(2-(4-Methoxy-2-methylbenzoyl)-5-methyl-6H-thieno[2,3-b]pyrrol-6-yl)propyl)methanesulfonamide], the EC50 on human CB2 (hCB2) and at human CB2 receptors was less than 0.1 µM throughout. Moreover, the “hCB1 EC50 (cAMP ag, nM)” value at human CB1 receptors is listed as “NS (NS means “Not Significant,” which means less than 30% agonist activity when compared to the positive control.)”. Moreover, the IC50 in test [1] is less than 0.1 µM.
Consider `COc1ccc(C(=O)c2cc3cc(C)n(CCN4CCCCC4)c3s2)c(F)c1` [Compound 98, (2-Fluoro-4-methoxyphenyl)(5-methyl-6-(2-(piperidin-1-yl)ethyl)-6H-thieno[2,3-b]pyrrol-2-yl)methanone], for which the EC50 on human CB2 (hCB2) and at human CB2 receptors was less than 0.1 µM throughout. Besides, the “hCB1 EC50 (cAMP ag, nM)” value at human CB1 receptors is “NS (NS means “Not Significant,” which means less than 30% agonist activity when compared to the positive control.)”. The IC50 in test [1] was less than 0.1 µM.
As to `COc1ccc(C(=O)c2cc3cc(C)n(CCN4CCCCC4)c3s2)c(O)c1` [Compound 99, (2-Hydroxy-4-methoxyphenyl)(5-methyl-6-(2-(piperidin-1-yl)ethyl)-6H-thieno[2,3-b]pyrrol-2-yl)methanone], the EC50 at human CB2 (hCB2) and on human CB2 receptors was less than 0.1 µM throughout. Moreover, the “hCB1 EC50 (cAMP ag, nM)” value at human CB1 receptors is listed as “NS (NS means “Not Significant,” which means less than 30% agonist activity when compared to the positive control.)”. For the same molecule, the IC50 in test [1] was 0.1 to 1 µM.
On to `COc1ccc(C(O)c2cc3cc(C)n(CCN4CCOCC4)c3s2)cc1` (stereo not shown) [Compound 100, (4-Methoxyphenyl)(5-methyl-6-(2-morpholinoethyl)-6H-thieno[2,3-b]pyrrol-2-yl)methanol], for which the EC50 at human CB2 (hCB2) (setting [2]) and on human CB2 receptors (setting [3]) was less than 0.1 µM each time. Also, at human CB1 receptors, the “hCB1 EC50 (cAMP ag, nM)” value is “NS (NS means “Not Significant,” which means less than 30% agonist activity when compared to the positive control.)”. Moreover, the IC50 in test [1] lay within 0.1 to 1 µM.
On to `COc1ccc(C(C)(O)c2cc3cc(C)n(CCN4CCOCC4)c3s2)cc1` (stereo not shown) [Compound 101, 1-(4-methoxyphenyl)-1-(5-methyl-6-(2-morpholinoethyl)-6H-thieno[2,3-b]pyrrol-2-yl)ethanol], for which the EC50 at human CB2 (hCB2) (setting [2]) and at human CB2 receptors (setting [3]) was less than 0.1 µM each time. Also, on human CB1 receptors, the “hCB1 EC50 (cAMP ag, nM)” value is on record as “NS (NS means “Not Significant,” which means less than 30% agonist activity when compared to the positive control.)”. Moreover, the IC50 in test [1] fell in the range of 0.1 to 1 µM.
`COc1ccc(C(=O)c2cc3cc(C)n(CCCCNS(C)(=O)=O)c3s2)cc1` [Compound 102, N-(4-(2-(4-Methoxybenzoyl)-5-methyl-6H-thieno[2,3-b]pyrrol-6-yl)butyl)methanesulfonamide]: the EC50 at human CB2 (hCB2) (setting [2]) and on human CB2 receptors (setting [3]) was less than 0.1 µM throughout. Further, the “hCB1 EC50 (cAMP ag, nM)” value on human CB1 receptors is listed as “NS (NS means “Not Significant,” which means less than 30% agonist activity when compared to the positive control.)”. For the same molecule, the IC50 in test [1] is less than 0.1 µM.
Consider `COc1ccc(Cn2c(C)cc3cc(C(=O)c4ccc(OC)cc4)sc32)cc1` [Compound 103, (6-(4-Methoxybenzyl)-5-methyl-6H-thieno[2,3-b]pyrrol-2-yl)(4-methoxyphenyl)methanone], for which the EC50 on human CB2 (hCB2) and at human CB2 receptors was 0.1 to 1 µM throughout. In addition, the “hCB1 EC50 (cAMP ag, nM)” value at human CB1 receptors was “NS (NS means “Not Significant,” which means less than 30% agonist activity when compared to the positive control.)”. Moreover, the IC50 in test [1] was 0.1 to 1 µM.
For `COc1ccc(C(=S)c2cc3cc(C)n(CCN4CCOCC4)c3s2)cc1` [Compound 104, (4-methoxyphenyl)(5-methyl-6-(2-morpholinoethyl)-6H-thieno[2,3-b]pyrrol-2-yl)methanethione], the EC50 at human CB2 (hCB2) and on human CB2 receptors was 0.1 to 1 µM throughout. At human CB1 receptors, the “hCB1 EC50 (cAMP ag, nM)” value is recorded as “NS (NS means “Not Significant,” which means less than 30% agonist activity when compared to the positive control.)”. In test [1], the IC50 fell in the range of 1 to 10 µM.
On to `COc1ccc(C(=O)c2cc3cc(C)n(CCCNS(N)(=O)=O)c3s2)cc1` [Compound 105], for which the EC50 at human CB2 (hCB2) was 0.1 to 1 µM; on human CB2 receptors it was 1 to 10 µM. For the same molecule, at human CB1 receptors, the “hCB1 EC50 (cAMP ag, nM)” value is given as “NS (NS means “Not Significant,” which means less than 30% agonist activity when compared to the positive control.)”. For the same molecule, the IC50 in test [1] is 1 to 10 µM.
For the molecule `Cc1cc2cc(C(=O)c3ccc4c(c3)OCO4)sc2n1CCN1CCOCC1` [Compound 106, Benzo[d][1,3]dioxol-5-yl(5-methyl-6-(2-morpholinoethyl)-6H-thieno[2,3-b]pyrrol-2-yl)methanone], the EC50 at human CB2 (hCB2) and at human CB2 receptors was less than 0.1 µM in each case. Moreover, at human CB1 receptors, the “hCB1 EC50 (cAMP ag, nM)” value is “NS (NS means “Not Significant,” which means less than 30% agonist activity when compared to the positive control.)”. Besides, the IC50 in test [1] lay within 0.1 to 1 µM.
In the case of `COc1ccc(C(=O)c2cc3cc(C)n(CCCN4CCOCC4)c3s2)cc1` [Compound 107, (4-Methoxyphenyl)(5-methyl-6-(3-morpholinopropyl)-6H-thieno[2,3-b]pyrrol-2-yl)methanone], the EC50 is less than 0.1 µM at human CB2 (hCB2) (setting [2]), 0.1 to 1 µM at human CB1 receptors and less than 0.1 µM at human CB2 receptors (setting [3]). In addition, in test [1], the IC50 is less than 0.1 µM.
For the molecule `COc1ccc(C(=O)c2cc3cc(C)n(CCCNC(C)(C)C)c3s2)cc1` [Compound 108, (6-(3-(tert-Butylamino)propyl)-5-methyl-6H-thieno[2,3-b]pyrrol-2-yl)(4-methoxyphenyl)methanone], the EC50 on human CB2 (hCB2) lay in the range of 0.1 to 1 µM; at human CB2 receptors it was 1 to 10 µM. On human CB1 receptors, the “hCB1 EC50 (cAMP ag, nM)” value is “NS (NS means “Not Significant,” which means less than 30% agonist activity when compared to the positive control.)”. In addition, the IC50 in test [1] was more than 10 µM.
On to `COc1ccc(C(=O)c2cc3cc(C)n(CCCNS(C)(=O)=O)c3s2)cn1` [Compound 109, N-(3-(2-(6-Methoxynicotinoyl)-5-methyl-6H-thieno[2,3-b]pyrrol-6-yl)propyl)methanesulfonamide], for which the EC50 at human CB2 (hCB2) (setting [2]) and at human CB2 receptors (setting [3]) was less than 0.1 µM in each case. Moreover, the “hCB1 EC50 (cAMP ag, nM)” value on human CB1 receptors is recorded as “NS (NS means “Not Significant,” which means less than 30% agonist activity when compared to the positive control.)”. Also, in test [1], the IC50 is 0.1 to 1 µM.
In the case of `COc1ccc(C(=O)c2cc3cc(C)n(CCN4CCSCC4)c3s2)cc1` [Compound 110, (4-Methoxyphenyl)(5-methyl-6-(2-thiomorpholinoethyl)-6H-thieno[2,3-b]pyrrol-2-yl)methanone], the EC50 at human CB2 (hCB2) was less than 0.1 µM; at human CB1 receptors it was 1 to 10 µM; at human CB2 receptors it was less than 0.1 µM. Further, in test [1], the IC50 was less than 0.1 µM.
